SMILES strings stand for the structures. Values after ≈ are worked out from the molar mass of the structure shown.

Common to all, as to format: cell-based
The test system of assay [1] is spores of ATCC BBA1870 strain. The experiment in a line: Inhibition of germination of C. difficile spores (MIC), strain ATCC BBA1870. The note with it: Clostridioides difficile, ATCCBBA1870STRAIN, 1 h; strain 1870; sodium taurocholate as germinant, BHIS medium, 37° C., OD580 for 60 min; read-out: MIC (minimum concentration that completely inhibits spore germination). Summed up:
(§1)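 Spores heat-activated for 30 min at 65° C and washed, then preincubated with compound (10 mM DMSO stock) in BHIS at 37° C. Germination was triggered with sodium taurocholate, and OD580 was read each minute for 60 min. Inhibition = 100% − germination rate, from final vs initial OD relative to germinant-only controls.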

Assay [2] has as its system spores of ATCC 43255 strain. Put plainly: Inhibition of germination of C. difficile spores (MIC), strain ATCC 43255. The note with it: Clostridioides difficile, ATCC43255, 1 h; strain 43255; sodium taurocholate as germinant, BHIS medium, 37° C., OD580 for 60 min; read-out: MIC (minimum concentration that completely inhibits spore germination). A digest of the protocol:
as §1

The test system of assay [3] is spores of ATCC 630 strain. Put plainly: Inhibition of germination of C. difficile spores (MIC), strain ATCC 630. As to conditions: Clostridioides difficile, ATCC630, 1 h; strain 630; sodium taurocholate as germinant, BHIS medium, 37° C., OD580 for 60 min; read-out: MIC (minimum concentration that completely inhibits spore germination). A digest of the protocol:
as §1

With `CC[C@@H](NC(=O)C[C@@H](C)[C@H]1CC[C@H]2[C@@H]3[C@H](O)CC4=CC(=O)CC[C@]4(C)[C@H]3CC[C@]12C)c1ccc(Cl)s1` [Compound I-157-2], the MIC in assay [1] was determined as 0.25 µM (≈ 0.133 µg/mL); in assay [2] it was 0.5 µM (≈ 0.266 µg/mL); in assay [3], 0.25 µM (≈ 0.133 µg/mL).
Turning to `CC(C)[C@@H](NC(=O)C[C@@H](C)[C@H]1CC[C@H]2[C@@H]3[C@H](O)CC4=CC(=O)CC[C@]4(C)[C@H]3CC[C@]12C)c1ccc(Cl)s1` [Compound I-158-2], the MIC in assay [1], in assay [2] and in assay [3] was 0.5 µM (≈ 0.273 µg/mL) throughout.
On to `CC[C@@H](NC(=O)C[C@@H](C)[C@H]1CC[C@H]2[C@@H]3[C@H](O)CC4=CC(=O)C=C[C@]4(C)[C@H]3CC[C@]12C)c1ccc(Br)s1` [Compound I-159-2], for which the MIC in assay [1], in assay [2] and in assay [3] was 0.5 µM (≈ 0.287 µg/mL) throughout.
As to `CC(C)[C@@H](NC(=O)C[C@@H](C)[C@H]1CC[C@H]2[C@@H]3[C@H](O)CC4=CC(=O)C=C[C@]4(C)[C@H]3CC[C@]12C)c1ccc(Br)s1` [Compound I-160-2], the MIC in assay [1], in assay [2] and in assay [3] was 0.5 µM (≈ 0.294 µg/mL) each time.
Take `CC[C@@H](NC(=O)C[C@@H](C)[C@H]1CC[C@H]2[C@@H]3[C@H](O)CC4=CC(=O)C=C[C@]4(C)[C@H]3CC[C@]12C)c1ccc(Cl)s1` [Compound I-161-2]: the MIC in assay [1] was found to be 0.25 µM (≈ 0.133 µg/mL); in assay [2], 0.5 µM (≈ 0.265 µg/mL); in assay [3] it was 0.25 µM (≈ 0.133 µg/mL).
As for `CC(C)[C@@H](NC(=O)C[C@@H](C)[C@H]1CC[C@H]2[C@@H]3[C@H](O)CC4=CC(=O)C=C[C@]4(C)[C@H]3CC[C@]12C)c1ccc(Cl)s1` [Compound I-162-2], the MIC in assay [1], in assay [2] and in assay [3] was 0.5 µM (≈ 0.272 µg/mL) in each case.
With `CC[C@@H](NC(=O)C[C@@H](C)[C@H]1CC[C@H]2[C@@H]3[C@@H](O)C[C@@H]4CC(=O)CC[C@]4(C)[C@H]3CC[C@]12C)c1ccc(Cl)s1` [Compound I-163], the MIC in assay [1], in assay [2] and in assay [3] was 32 µM (≈ 17.1 µg/mL) in each case.
As for `CC(C)[C@@H](NC(=O)C[C@@H](C)[C@H]1CC[C@H]2[C@@H]3[C@@H](O)C[C@@H]4CC(=O)CC[C@]4(C)[C@H]3CC[C@]12C)c1ccc(Cl)s1` [Compound I-164], the MIC in assay [1], in assay [2] and in assay [3] was 32 µM (≈ 17.5 µg/mL) throughout.
Consider `CC[C@@H](NC(=O)C[C@@H](C)[C@H]1CC[C@H]2[C@@H]3[C@H](O)C[C@@H]4CC(=O)CC[C@]4(C)[C@H]3C[C@H](O)[C@]12C)c1ccc(Br)s1` [Compound I-165], for which the values for the MIC in assay [1], in assay [2] and in assay [3] were 64 µM (≈ 38.1 µg/mL), 64 µM (≈ 38.1 µg/mL) and 32 µM (≈ 19 µg/mL), respectively.
Turning to `CC(C)[C@@H](NC(=O)C[C@@H](C)[C@H]1CC[C@H]2[C@@H]3[C@H](O)C[C@@H]4CC(=O)CC[C@]4(C)[C@H]3C[C@H](O)[C@]12C)c1ccc(Br)s1` [Compound I-166], the results for the MIC in assay [1], in assay [2] and in assay [3] were 64 µM (≈ 39 µg/mL), 32 µM (≈ 19.5 µg/mL) and 32 µM (≈ 19.5 µg/mL), respectively.
Regarding `CC[C@@H](NC(=O)C[C@@H](C)[C@H]1CC[C@H]2[C@@H]3C(=O)C[C@@H]4C[C@H](OC)CC[C@]4(C)[C@H]3CC[C@]12C)c1ccc(Cl)s1` [Compound I-167], the MIC in assay [1] was found to be 256 µM (≈ 140 µg/mL); in assay [2] it was 128 µM (≈ 70.2 µg/mL); in assay [3], 128 µM (≈ 70.2 µg/mL).
Turning to `CO[C@@H]1CC[C@@]2(C)[C@H](CC(=O)[C@@H]3[C@@H]2CC[C@]2(C)[C@@H]([C@H](C)CC(=O)N[C@@H](c4ccc(Cl)s4)C(C)C)CC[C@@H]32)C1` [Compound I-168], the MIC in assay [1], in assay [2] and in assay [3] was 128 µM (≈ 72 µg/mL) throughout.
`CC[C@@H](NC(=O)C[C@@H](C)[C@H]1CC[C@H]2[C@@H]3[C@H](O)C[C@@H]4C[C@H](OC)CC[C@]4(C)[C@H]3CC[C@]12C)c1ccc(Cl)s1` [Compound I-169]: the values for the MIC in assay [1], in assay [2] and in assay [3] were 256 µM (≈ 141 µg/mL), 256 µM (≈ 141 µg/mL) and 128 µM (≈ 70.4 µg/mL), respectively.
`CO[C@@H]1CC[C@@]2(C)[C@@H](C1)C[C@@H](O)[C@@H]1[C@@H]2CC[C@]2(C)[C@@H]([C@H](C)CC(=O)N[C@@H](c3ccc(Cl)s3)C(C)C)CC[C@@H]12` [Compound I-170]: the MIC in assay [1], in assay [2] and in assay [3] was 128 µM (≈ 72.2 µg/mL) throughout.
As for `CC[C@@H](NC(=O)C[C@@H](C)[C@H]1CC[C@H]2[C@@H]3[C@H](N)C[C@@H]4C[C@H](O)CC[C@]4(C)[C@H]3CC[C@]12C)c1ccc(Cl)s1` [Compound I-171], the MIC in assay [1], in assay [2] and in assay [3] was 32 µM (≈ 17.1 µg/mL) each time.
With `CC[C@@H](NC(=O)C[C@@H](C)[C@H]1CC[C@H]2[C@@H]3[C@H](N)C[C@@H]4CC(=O)CC[C@]4(C)[C@H]3CC[C@]12C)c1ccc(Cl)s1` [Compound I-172], the MIC in assay [1], in assay [2] and in assay [3] was 32 µM (≈ 17.1 µg/mL) throughout.
`CC(C)[C@@H](NC(=O)C[C@@H](C)[C@H]1CC[C@H]2[C@@H]3[C@H](N)C[C@@H]4C[C@H](O)CC[C@]4(C)[C@H]3CC[C@]12C)c1ccc(Cl)s1` [Compound I-173]: the figures for the MIC in assay [1], in assay [2] and in assay [3] were 32 µM (≈ 17.6 µg/mL), 16 µM (≈ 8.79 µg/mL) and 16 µM (≈ 8.79 µg/mL), respectively.
`CC(C)[C@@H](NC(=O)C[C@@H](C)[C@H]1CC[C@H]2[C@@H]3[C@H](N)C[C@@H]4CC(=O)CC[C@]4(C)[C@H]3CC[C@]12C)c1ccc(Cl)s1` [Compound I-174]: the MIC in assay [1], in assay [2] and in assay [3] was 32 µM (≈ 17.5 µg/mL) in each case.
`CC[C@@H](NC(=O)C[C@@H](C)[C@H]1CC[C@H]2[C@@H]3[C@H](OC(C)=O)C[C@@H]4CC(=O)CC[C@]4(C)[C@H]3CC[C@]12C)c1ccc(Cl)s1` [Compound I-175]: the results for the MIC in assay [1], in assay [2] and in assay [3] were 1 µM (≈ 0.576 µg/mL), 1 µM (≈ 0.576 µg/mL) and 0.5 µM (≈ 0.288 µg/mL), respectively.
As to `CC[C@@H](NC(=O)C[C@@H](C)[C@H]1CC[C@H]2[C@@H]3[C@H](OC(C)=O)C[C@@H]4CC(=O)CC[C@]4(C)[C@H]3CC[C@]12C)c1ccc(Br)s1` [Compound I-176], the MIC in assay [1], in assay [2] and in assay [3] was 0.5 µM (≈ 0.31 µg/mL) each time.
On to `CC(=O)O[C@@H]1C[C@@H]2CC(=O)CC[C@]2(C)[C@H]2CC[C@]3(C)[C@@H]([C@H](C)CC(=O)N[C@@H](c4ccc(Cl)s4)C(C)C)CC[C@H]3[C@H]12` [Compound I-177], for which the MIC in assay [1] was found to be 0.5 µM (≈ 0.295 µg/mL); in assay [2], 1 µM (≈ 0.59 µg/mL); in assay [3], 0.5 µM (≈ 0.295 µg/mL).
For `CC(=O)O[C@@H]1C[C@@H]2CC(=O)CC[C@]2(C)[C@H]2CC[C@]3(C)[C@@H]([C@H](C)CC(=O)N[C@@H](c4ccc(Br)s4)C(C)C)CC[C@H]3[C@H]12` [Compound I-178], the MIC is 1 µM (≈ 0.635 µg/mL) in assay [1], 0.5 µM (≈ 0.317 µg/mL) in assay [2] and 0.5 µM (≈ 0.317 µg/mL) in assay [3].
With `CC[C@@H](NC(=O)C[C@@H](C)[C@H]1CC[C@H]2[C@@H]3[C@H](OC(=O)CCC(=O)O)C[C@@H]4CC(=O)CC[C@]4(C)[C@H]3CC[C@]12C)c1ccc(Cl)s1` [Compound I-179], the MIC in assay [1], in assay [2] and in assay [3] was 2 µM (≈ 1.27 µg/mL) throughout.
For `CC[C@@H](NC(=O)C[C@@H](C)[C@H]1CC[C@H]2[C@@H]3[C@H](OC(=O)CCC(=O)O)C[C@@H]4CC(=O)CC[C@]4(C)[C@H]3CC[C@]12C)c1ccc(Br)s1` [Compound I-180], the values for the MIC in assay [1], in assay [2] and in assay [3] were 2 µM (≈ 1.36 µg/mL), 2 µM (≈ 1.36 µg/mL) and 1 µM (≈ 0.679 µg/mL), respectively.
For `CC(C)[C@@H](NC(=O)C[C@@H](C)[C@H]1CC[C@H]2[C@@H]3[C@H](OC(=O)CCC(=O)O)C[C@@H]4CC(=O)CC[C@]4(C)[C@H]3CC[C@]12C)c1ccc(Cl)s1` [Compound I-181], the MIC in assay [1], in assay [2] and in assay [3] was 2 µM (≈ 1.3 µg/mL) throughout.
As to `CC(C)[C@@H](NC(=O)C[C@@H](C)[C@H]1CC[C@H]2[C@@H]3[C@H](OC(=O)CCC(=O)O)C[C@@H]4CC(=O)CC[C@]4(C)[C@H]3CC[C@]12C)c1ccc(Br)s1` [Compound I-182], the MIC in assay [1], in assay [2] and in assay [3] was 2 µM (≈ 1.39 µg/mL) each time.
Take `CCCCCCCC(=O)O[C@@H]1C[C@@H]2CC(=O)CC[C@]2(C)[C@H]2CC[C@]3(C)[C@@H]([C@H](C)CC(=O)N[C@H](CC)c4ccc(Cl)s4)CC[C@H]3[C@H]12` [Compound I-183]: the values for the MIC in assay [1], in assay [2] and in assay [3] were 256 µM (≈ 169 µg/mL), 128 µM (≈ 84.5 µg/mL) and 128 µM (≈ 84.5 µg/mL), respectively.
As to `CCCCCCCC(=O)O[C@@H]1C[C@@H]2CC(=O)CC[C@]2(C)[C@H]2CC[C@]3(C)[C@@H]([C@H](C)CC(=O)N[C@H](CC)c4ccc(Br)s4)CC[C@H]3[C@H]12` [Compound I-184], the MIC in assay [1], in assay [2] and in assay [3] was 128 µM (≈ 90.2 µg/mL) in each case.
